20 compounds from patent US10519154B2, “7-substituted 1-pyridyl-naphthyridine-3-carboxylic acid amides and use thereof” (Bayer Pharma Aktiengesellschaft, priority 2016, dated 2019) can be followed below.

In this assay the target is T1, human M2 receptor (Homo sapiens, UniProt P08172).
T1 sequence (P08172 1-466): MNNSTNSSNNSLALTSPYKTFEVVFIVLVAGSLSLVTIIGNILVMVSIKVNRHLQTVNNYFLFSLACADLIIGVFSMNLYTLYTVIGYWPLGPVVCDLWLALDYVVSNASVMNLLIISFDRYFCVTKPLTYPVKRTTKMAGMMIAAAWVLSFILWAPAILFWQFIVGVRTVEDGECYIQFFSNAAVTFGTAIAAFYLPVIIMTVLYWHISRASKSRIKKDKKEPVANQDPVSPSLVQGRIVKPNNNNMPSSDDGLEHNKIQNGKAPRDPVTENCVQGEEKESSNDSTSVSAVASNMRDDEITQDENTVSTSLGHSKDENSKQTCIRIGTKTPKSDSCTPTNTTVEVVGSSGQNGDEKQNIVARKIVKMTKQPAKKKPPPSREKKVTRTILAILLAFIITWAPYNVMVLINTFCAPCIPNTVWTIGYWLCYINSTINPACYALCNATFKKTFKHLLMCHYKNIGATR
As to the kind of experiment: Functional M2-GIRK1/4 activation test: allosteric potency (EC50) and efficiency. The settings on record: for EC50: Receptor activity EC50, CHO-DUKX-M2-GIRK cells, acetylcholine at EC20, in some cases mean of two or more determinations; for Emax: read-out: Efficiency, boosting of the acetylcholine effect at EC20 acetylcholine concentration.

In turn, `CC(NC(=O)c1cn(-c2ncc(F)cc2F)c2nc(N3CCNC3=O)ccc2c1=O)C(F)(F)C(F)(F)F` (single isomer, unassigned) [Example 163, 1-(3,5-Difluoropyridin-2-yl)-4-oxo-7-(2-oxoimidazolidin-1-yl)-N-[3,3,4,4,4-pentafluorobutan-2-yl]-1,4-dihydro-1,8-naphthyridine-3-carboxamide] returned an EC50 of 120 nM. For the setting “boosting of the acetylcholine effect at EC20 acetylcholine concentration, CHO-DUKX-M2-GIRK cells”, this compound registered an Efficiency of 100.00%.
The compound `CC(C)(C)[C@@H](NC(=O)c1cn(-c2ncc(F)cc2F)c2nc(N3CCN(CCO)C3=O)ccc2c1=O)C(F)(F)F` [Example 126, 1-(3,5-Difluoropyridin-2-yl)-7-[3-(2-hydroxyethyl)-2-oxoimidazolidin-1-yl]-4-oxo-N-[(2R)-1,1,1-trifluoro-3,3-dimethylbutan-2-yl]-1,4-dihydro-1,8-naphthyridine-3-carboxamide] had an EC50 of 87 nM. Further, the Emax (CHO-DUKX-M2-GIRK cells) came out at 98%.
Compound `O=C(N[C@H](C1CC1)C(F)(F)F)c1cn(-c2ncc(F)cc2F)c2nc(N3CC4CC4(O)C3)ccc2c1=O` (single isomer, unassigned) [Example 38] registered an EC50 of 18 nM. In addition, the Emax (CHO-DUKX-M2-GIRK cells) came to 98%.
The matching figures for `CCC(NC(=O)c1cn(-c2ncc(F)cc2F)c2nc(N3C[C@@H](O)CC3=O)ccc2c1=O)C(F)(F)C(F)(F)F` (mixture of isomers) [Example 92, 1-(3,5-Difluoropyridin-2-yl)-7-[(4S)-4-hydroxy-2-oxopyrrolidin-1-yl]-4-oxo-N-[1,1,1,2,2-pentafluoropentan-3-yl]-1,4-dihydro-1,8-naphthyridine-3-carboxamide]: 17 nM and 100%.
As for `CC(NC(=O)c1cn(-c2ncc(F)cc2F)c2nc(N3CCNC3=O)ccc2c1=O)C(F)(F)C(F)(F)F` (single isomer, unassigned) [Example 162, 1-(3,5-Difluoropyridin-2-yl)-4-oxo-7-(2-oxoimidazolidin-1-yl)-N-[3,3,4,4,4-pentafluorobutan-2-yl]-1,4-dihydro-1,8-naphthyridine-3-carboxamide], the response was half-maximal at 24 nM (EC50). In addition, the Emax (CHO-DUKX-M2-GIRK cells) is 96%.
`CC[C@H](NC(=O)c1cn(-c2ncc(F)cc2F)c2nc(N3C(=O)C(C)(C)C(O)C34CC4)ccc2c1=O)C(F)(F)F` (stereo partly drawn) [Example 31, 1-(3,5-Difluoropyridin-2-yl)-7-[7-hydroxy-6,6-dimethyl-5-oxo-4-azaspiro[2.4]hept-4-yl]-4-oxo-N-[(2S)-1,1,1-trifluorobutan-2-yl]-1,4-dihydro-1,8-naphthyridine-3-carboxamide]: the EC50 came out at 645 nM. Besides, the Emax (CHO-DUKX-M2-GIRK cells) came to 88.5%.
The matching figures for `CC1C(O)C2(CC2)C(=O)N1c1ccc2c(=O)c(C(=O)N[C@@H](C3CC3)C(F)(F)F)cn(-c3ncc(F)cc3F)c2n1` (stereo partly drawn) [Example 115, N-[(1S)-1-Cyclopropyl-2,2,2-trifluoroethyl]-1-(3,5-difluoropyridin-2-yl)-7-[7-hydroxy-6-methyl-4-oxo-5-azaspiro[2.4]hept-5-yl]-4-oxo-1,4-dihydro-1,8-naphthyridine-3-carboxamide]: 150 nM and 89%.
In the same order, the values of `O=C(NC1CCC1)c1cn(-c2ncc(F)cc2F)c2nc(N3C[C@@H](O)[C@H](O)C3)ccc2c1=O` [Example 168, N-Cyclobutyl-1-(3,5-difluoropyridin-2-yl)-7-[(3R,4R)-3,4-dihydroxypyrrolidin-1-yl]-4-oxo-1,4-dihydro-1,8-naphthyridine-3-carboxamide] are 2850 nM and 84.5%.
In turn, `CC(C)(NC(=O)c1cn(-c2ncc(F)cc2F)c2nc(N3CCC(O)(CO)CC3)ccc2c1=O)C(F)(F)C(F)(F)F` [Example 174, 1-(3,5-Difluoropyridin-2-yl)-7-[4-hydroxy-4-(hydroxymethyl)piperidin-1-yl]-4-oxo-N-(3,3,4,4,4-pentafluoro-2-methylbutan-2-yl)-1,4-dihydro-1,8-naphthyridine-3-carboxamide] yielded an EC50 of 83 nM. Also, under “CHO-DUKX-M2-GIRK cells”, the Emax came out at 100%.
The compound `CC(C)(NC(=O)c1cn(-c2ncc(F)cc2F)c2nc(N3CC4(COC4)C3)ccc2c1=O)C(F)(F)C(F)(F)F` [Example 182, 1-(3,5-Difluoropyridin-2-yl)-7-(2-oxa-6-azaspiro[3.3]hept-6-yl)-4-oxo-N-(3,3,4,4,4-pentafluoro-2-methylbutan-2-yl)-1,4-dihydro-1,8-naphthyridine-3-carboxamide] showed an EC50 of 410 nM. In addition, the Emax (CHO-DUKX-M2-GIRK cells) worked out at 100%.
In the same order, the values of `O=C(NC(C1CC1)C(F)(F)F)c1cn(-c2ncc(F)cc2F)c2nc(N3C[C@@H](O)[C@H](O)C3)ccc2c1=O` (stereo partly drawn) [Example 40, N-[1-Cyclopropyl-2,2,2-trifluoroethyl]-1-(3,5-difluoropyridin-2-yl)-7-[(3R,4R)-3,4-dihydroxypyrrolidin-1-y1]-4-oxo-1,4-dihydro-1,8-naphthyridine-3-carboxamide] are 160 nM and 100%.
`CC(C)C(NC(=O)c1cn(-c2ncc(F)cc2F)c2nc(N3CCNC3=O)ccc2c1=O)C(F)(F)F` (racemic) [Example 169, 1-(3,5-Difluoropyridin-2-yl)-4-oxo-7-(2-oxoimidazolidin-1-yl)-N-[1,1,1-trifluoro-3-methylbutan-2-yl]-1,4-dihydro-1,8-naphthyridine-3-carboxamide]: a half-maximal response (EC50) required 120 nM. Where the note is “CHO-DUKX-M2-GIRK cells”, the Emax worked out at 97.5%.
In the same order, the values of `CC[C@@H](NC(=O)c1cn(-c2ncc(F)cc2F)c2nc(N3CCC(C)(O)C3)ccc2c1=O)C(F)(F)F` (mixture of isomers) [Example 46, 1-(3,5-Difluoropyridin-2-yl)-7-[3-hydroxy-3-methylpyrrolidin-1-yl]-4-oxo-N-[(2R)-1,1,1-trifluorobutan-2-yl]-1,4-dihydro-1,8-naphthyridine-3-carboxamide] are 385 nM and 97%.
`CC(C)(C)[C@@H](NC(=O)c1cn(-c2ncc(F)cc2F)c2nc(N3CCCN(CCO)C3=O)ccc2c1=O)C(F)(F)F` [Example 127, 1-(3,5-Difluoropyridin-2-yl)-7-[3-(2-hydroxyethyl)-2-oxotetrahydropyrimidin-1(2H)-yl]-4-oxo-N-[(2R)-1,1,1-trifluoro-3,3-dimethylbutan-2-yl]-1,4-dihydro-1,8-naphthyridine-3-carboxamide] registered an EC50 of 50 nM. For the same compound, where the note is “CHO-DUKX-M2-GIRK cells”, the Emax is 96%.
The matching figures for `CC[C@H](NC(=O)c1cn(-c2ncc(F)cc2F)c2nc(N3CCCN(CCO)C3=O)ccc2c1=O)C(F)(F)F` [Example 120, 1-(3,5-Difluoropyridin-2-yl)-7-[3-(2-hydroxyethyl)-2-oxotetrahydropyrimidin-1(2H)-yl]-4-oxo-N-[(2S)-1,1,1-trifluorobutan-2-yl]-1,4-dihydro-1,8-naphthyridine-3-carboxamide]: 400 nM and 100%.
In the same order, the values of `O=C(N[C@@H](C1CC1)C(F)(F)F)c1cn(-c2ncc(F)cc2F)c2nc(N3C[C@@H](O)[C@@H](O)C3)ccc2c1=O` [Example 62, N-[(1S)-1-Cyclopropyl-2,2,2-trifluoroethyl]-1-(3,5-difluoropyridin-2-yl)-7-[(3R,4S)-3,4-dihydroxypyrrolidin-1-yl]-4-oxo-1,4-dihydro-1,8-naphthyridine-3-carboxamide] are 220 nM and 100%.
In the case of `CC(NC(=O)c1cn(-c2ncc(F)cc2F)c2nc(N3CC(CO)(CO)C3)ccc2c1=O)C(F)(F)C(F)(F)F` (single isomer, unassigned) [Example 183, 7-[3,3-Bis(hydroxymethyl)azetidin-1-yl]-1-(3,5-difluoropyridin-2-yl)-4-oxo-N-[3,3,4,4,4-pentafluorobutan-2-yl]-1,4-dihydro-1,8-naphthyridine-3-carboxamide], the EC50 amounted to 53 nM. Further, where the note is “CHO-DUKX-M2-GIRK cells”, the Emax is 100%.
The matching figures for `O=C(N[C@H](C1CC1)C(F)(F)F)c1cn(-c2ncc(F)cc2F)c2nc(N3CCCN(CCO)C3=O)ccc2c1=O` [Example 122, N-[(1R)-1-Cyclopropyl-2,2,2-trifluoroethyl]-1-(3,5-difluoropyridin-2-yl)-7-[3-(2-hydroxyethyl)-2-oxotetrahydropyrimidin-1(2H)-yl]-4-oxo-1,4-dihydro-1,8-naphthyridine-3-carboxamide]: 220 nM and 92%.
The matching figures for `O=C(NC1(C(F)(F)F)CCC1)c1cn(-c2ncc(F)cc2F)c2nc(N3C[C@@H](O)CC3=O)ccc2c1=O` [Example 151, 1-(3,5-Difluoropyridin-2-yl)-7-[(4S)-4-hydroxy-2-oxopyrrolidin-1-yl]-4-oxo-N-[1-(trifluoromethyl)cyclobutyl]-1,4-dihydro-1,8-naphthyridine-3-carboxamide]: 290 nM and 99%.
The matching figures for `CC1(O)CCN(c2ccc3c(=O)c(C(=O)Nc4c(Cl)cccc4Cl)cn(-c4ncc(F)cc4F)c3n2)C1` (racemic) [Example 69, N-(2,6-Dichlorophenyl)-1-(3,5-difluoropyridin-2-yl)-7-[3-hydroxy-3-methylpyrrolidin-1-yl]-4-oxo-1,4-dihydro-1,8-naphthyridine-3-carboxamide]: 365 nM and 92%.

The EC50 is the concentration giving half of the maximal effect. Low values mean greater potency, high ones weaker potency.
